“Also recorded” adds a separate entry of the source. Values belong to the compound of their own block, whether it stands above or below them.
Columns and labels:
Nurr1 [1] = biological target: T1, Nurr1 (Homo sapiens, UniProt P43354); assay: Ligand efficiency metrics; conditions: computed according to ref. 29
Target sequence in this assay (P43354 whole entry): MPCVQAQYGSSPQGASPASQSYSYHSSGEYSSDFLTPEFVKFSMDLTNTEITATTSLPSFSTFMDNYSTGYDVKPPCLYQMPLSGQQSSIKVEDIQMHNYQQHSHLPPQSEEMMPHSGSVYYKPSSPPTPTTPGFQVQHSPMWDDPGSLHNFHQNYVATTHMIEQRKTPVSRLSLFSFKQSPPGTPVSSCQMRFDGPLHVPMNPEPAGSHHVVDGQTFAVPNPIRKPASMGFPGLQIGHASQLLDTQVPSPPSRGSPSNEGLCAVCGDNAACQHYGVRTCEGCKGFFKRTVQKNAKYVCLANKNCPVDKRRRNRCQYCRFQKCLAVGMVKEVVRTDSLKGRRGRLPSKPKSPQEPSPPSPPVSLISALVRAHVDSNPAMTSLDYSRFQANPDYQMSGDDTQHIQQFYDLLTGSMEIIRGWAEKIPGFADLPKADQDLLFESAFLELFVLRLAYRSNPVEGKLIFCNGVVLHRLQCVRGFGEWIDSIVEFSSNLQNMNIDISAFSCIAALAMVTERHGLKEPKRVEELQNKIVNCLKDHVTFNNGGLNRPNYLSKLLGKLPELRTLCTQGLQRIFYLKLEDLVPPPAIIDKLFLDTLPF

Nurr1 [2] = biological target: T1, Nurr1; conditions: Nurr1 agonism, literature values (refs. 24, 27, 28); cited from earlier work
Target sequence in this assay (P43354 whole entry): as above

[3] = Compound stability (observation); format: physicochemical; conditions: printed in the EC50 column of Table 1
Nur77 = biological target: T2, Nur77 (Homo sapiens, UniProt P22736); assay: Gal4 hybrid reporter gene assay, selectivity profiling (Nur77); format: cell-based; conditions: result in words, at 10 µM
T2 construct: expressed in transfected cells; host or cells: HEK293T
T2 sequence (P22736 360-595 limits assumed): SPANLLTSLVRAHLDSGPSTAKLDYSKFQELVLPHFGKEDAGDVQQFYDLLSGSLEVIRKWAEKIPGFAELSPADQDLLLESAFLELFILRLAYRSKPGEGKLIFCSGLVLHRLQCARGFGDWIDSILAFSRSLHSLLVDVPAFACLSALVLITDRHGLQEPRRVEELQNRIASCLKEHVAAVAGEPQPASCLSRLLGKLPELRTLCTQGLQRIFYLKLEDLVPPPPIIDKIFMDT
Experimental: Hybrid reporter gene assays. Nurr1 modulation was determined in a Gal4 hybrid reporter gene assay in HEK293T cells (German Collection of Microorganisms and Cell Culture GmbH, DSMZ) using pFR-Luc (Stratagene, La Jolla, CA, USA; reporter), pRL-SV40 (Promega, Madison, WI, USA; internal control) and pFA-CMV-hNurr1-LBD^14, coding for the hinge region and ligand binding domain of the canonical isoform of human Nurr1. […] After 24 h, medium was changed to Opti-MEM without supplements and cells were transiently transfected using Lipofectamine LTX reagent (Invitrogen, Carlsbad, CA, USA) according to the manufacturer's protocol. Five hours after transfection, cells were incubated with the test compounds in Opti-MEM supplemented with penicillin (100 U/mL), streptomycin (100 µg/mL) and 0.1% DMSO for 16 h before luciferase activity was measured using the Dual-Glo Luciferase Assay System (Promega) according to the manufacturer's protocol on a Tecan Spark luminometer (Tecan Deutschland GmbH, Crailsheim, Germany). Firefly luminescence was divided by Renilla luminescence and multiplied by 1000 resulting in relative light units (RLU) to normalize for transfection efficiency and cell growth. Fold activation was obtained by dividing the mean RLU of test compound by the mean RLU of the untreated control. All samples were tested in at least three biologically independent experiments in duplicates. […]

NOR-1 = biological target: T3, NOR-1 (Homo sapiens, UniProt Q92570); assay: Gal4 hybrid reporter gene assay, selectivity profiling (NOR-1); format: cell-based; conditions: result in words, at 10 µM
T3 construct: pFA-CMV-NOR-1-LBD; expressed in transfected cells; host or cells: HEK293T
T3 sequence (Q92570 394-623 limits assumed): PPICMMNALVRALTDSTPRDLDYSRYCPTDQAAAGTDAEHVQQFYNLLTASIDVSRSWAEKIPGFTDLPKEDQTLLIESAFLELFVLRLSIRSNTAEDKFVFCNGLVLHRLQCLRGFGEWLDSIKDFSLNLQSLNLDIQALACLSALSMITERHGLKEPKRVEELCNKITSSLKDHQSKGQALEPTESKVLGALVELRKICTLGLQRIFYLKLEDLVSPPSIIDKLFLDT

Nurr1 monomer (NBRE) = biological target: T4, Nurr1 monomer (NBRE) (Homo sapiens, UniProt P43354); assay: Full-length Nurr1 reporter gene assay, response element NBRE; format: cell-based; conditions: result in words, at 10 µM
T4 construct: The full length human nuclear receptor Nurr1 (pcDNA3.1-hNurr1-NE; Addgene plasmid #102363); NE (suffix in the plasmid name); host or cells: HEK293T
T4 sequence (P43354 whole entry): as the sequence (P43354 whole entry) above
From the text: (§1) Full-length Nurr1 reporter gene assays. Activation of full length human Nurr1 was studied in transiently transfected HEK293T cells using the reporter plasmids pFR-Luc-NBRE^14, pFR-Luc-POMC^14 or pFR-Luc-DR5^14 each containing one copy of the respective human Nurr1 response element NBRE Nl3, NurRE, or DR5. The full length human nuclear receptor Nurr1 (pcDNA3.1-hNurr1-NE; Addgene plasmid #102363) and, for DR5, RXRα (pSG5-hRXR)^44 were overexpressed. pRL-SV40 (Promega) was used for normalization of transfection efficacy and to observe test compound toxicity. […] After 24 h, medium was changed to Opti-MEM without supplements and cells were transiently transfected using Lipofectamine LTX reagent (invitrogen) according to the manufacturer's protocol. Five hours after transfection, cells were incubated with the test compounds in Opti-MEM supplemented with penicillin (100 U/mL), streptomycin (100 µg/mL) and 0.1% DMSO for 16 h before luciferase activity was measured using the Dual-Glo Luciferase Assay System (Promega) according to the manufacturer's protocol on a Tecan Spark luminometer (Tecan Deutschland GmbH). Firefly luminescence was divided by Renilla luminescence and multiplied by 1000 resulting in relative light units (RLU) to normalize for transfection efficiency and cell growth. […]

Nurr1 homodimer (NurRE) = biological target: T5, Nurr1 homodimer (NurRE) (Homo sapiens, UniProt P43354); assay: Full-length Nurr1 reporter gene assay, response element NurRE; format: cell-based; conditions: result in words, at 10 µM
T5 construct: The full length human nuclear receptor Nurr1 (pcDNA3.1-hNurr1-NE; Addgene plasmid #102363); host or cells: HEK293T
T5 sequence (P43354 whole entry): as above
From the text: as §1

[4] = biological target: T6, Nurr1-RXR heterodimer (DR5) (Homo sapiens, UniProt P43354); assay: Full-length Nurr1 reporter gene assay, response element DR5 with RXRα; format: cell-based; conditions: result in words, at 10 µM
T6 construct: The full length human nuclear receptor Nurr1 (pcDNA3.1-hNurr1-NE; Addgene plasmid #102363); NE (suffix in the plasmid name); host or cells: HEK293T
T6 sequence (P43354 whole entry): as above
T6 sequence (P19793 whole entry partner): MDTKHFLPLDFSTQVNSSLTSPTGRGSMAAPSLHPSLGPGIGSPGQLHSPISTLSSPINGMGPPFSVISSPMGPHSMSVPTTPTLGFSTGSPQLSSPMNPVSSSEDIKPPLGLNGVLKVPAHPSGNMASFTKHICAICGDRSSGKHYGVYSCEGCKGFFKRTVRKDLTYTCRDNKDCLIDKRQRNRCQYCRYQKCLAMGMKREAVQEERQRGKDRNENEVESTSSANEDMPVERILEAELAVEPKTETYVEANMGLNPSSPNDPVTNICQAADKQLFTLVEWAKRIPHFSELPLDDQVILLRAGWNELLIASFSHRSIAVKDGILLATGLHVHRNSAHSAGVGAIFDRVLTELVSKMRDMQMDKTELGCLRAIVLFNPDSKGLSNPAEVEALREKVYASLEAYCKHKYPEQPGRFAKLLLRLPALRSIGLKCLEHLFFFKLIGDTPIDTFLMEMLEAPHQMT
From the text: Full-length Nurr1 reporter gene assays. Activation of full length human Nurr1 was studied in transiently transfected HEK293T cells using the reporter plasmids pFR-Luc-NBRE^14, pFR-Luc-POMC^14 or pFR-Luc-DR5^14 each containing one copy of the respective human Nurr1 response element NBRE Nl3, NurRE, or DR5. The full length human nuclear receptor Nurr1 (pcDNA3.1-hNurr1-NE; Addgene plasmid #102363) and, for DR5, RXRα (pSG5-hRXR)^44 were overexpressed. pRL-SV40 (Promega) was used for normalization of transfection efficacy and to observe test compound toxicity. […] After 24 h, medium was changed to Opti-MEM without supplements and cells were transiently transfected using Lipofectamine LTX reagent (invitrogen) according to the manufacturer's protocol. Five hours after transfection, cells were incubated with the test compounds in Opti-MEM supplemented with penicillin (100 U/mL), streptomycin (100 µg/mL) and 0.1% DMSO for 16 h before luciferase activity was measured using the Dual-Glo Luciferase Assay System (Promega) according to the manufacturer's protocol on a Tecan Spark luminometer (Tecan Deutschland GmbH). Firefly luminescence was divided by Renilla luminescence and multiplied by 1000 resulting in relative light units (RLU) to normalize for transfection efficiency and cell growth. Fold activation was obtained by dividing the mean RLU of test compound by the mean RLU of the untreated control. All samples were tested in at least three biologically independent experiments in duplicates. For dose-response curve fitting and calculation of EC50 values, the equation "[Agonist] vs. response -- Variable slope (four parameters)" was used in GraphPad Prism (version 7.00, GraphPad Software).

Nurr1 LBD = biological target: T7, Nurr1 LBD (Homo sapiens, UniProt P43354); assay: Isothermal titration calorimetry (ITC); format: binding; conditions: result in words; ITC with 100 µM 29 and 30 µM protein
T7 construct: Nurr1 LBD protein (10-30 µM, expressed as described previously^21); made in house
T7 sequence (P43354 360-595 limits assumed): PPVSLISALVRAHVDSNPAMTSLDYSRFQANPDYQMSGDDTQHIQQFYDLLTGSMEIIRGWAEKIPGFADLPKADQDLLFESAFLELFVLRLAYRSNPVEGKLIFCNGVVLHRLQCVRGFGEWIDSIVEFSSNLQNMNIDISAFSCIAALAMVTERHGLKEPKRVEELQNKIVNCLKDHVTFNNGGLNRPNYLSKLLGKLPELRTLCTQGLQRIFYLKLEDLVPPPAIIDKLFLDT
Experimental: Isothermal Titration Calorimetry (ITC). ITC experiments were conducted on an Affinity ITC instrument (TA Instruments, New Castle, DE) at 25°C with a stirring rate of 75 rpm. Nurr1 LBD protein (10-30 µM, expressed as described previously^21) in buffer (20 mM Tris pH 7.5, 100 mM NaCl, 5% glycerol) containing 1-4% DMSO was titrated with the test compounds (60-150 µM in the same buffer containing 1-4% DMSO) in 26 injections (1x 1 µL, 25x 3-4 µL) with an injection interval of 150 s. As control experiments, the test compounds were titrated to the buffer, and the buffer was titrated to the Nurr1 LBD protein under otherwise identical conditions. Results were analyzed using NanoAnalyze software (version 3.11.0, TA Instruments, New Castle, DE) with independent binding models.

[5] = test system: Nurr1-regulated tyrosine hydroxylase (TH), vesicular amino acid transporter 2 (VMAT2) and superoxide dismutase 2 (SOD2) in astrocytes (T98G); assay: Nurr1-regulated gene expression in T98G cells (qPCR); format: cell-based, human; conditions: 10 µM
[6] = Determination of aqueous solubility; format: physicochemical; conditions: water, 24 h, 25°C
Experimental: Determination of aqueous solubility. […] The mixture was agitated in a VWR Thermal Shake lite (VWR International GmbH, Darmstadt, Germany) for 24 h at 600 rpm and constant temperature of 25°C. The supersaturated mixtures were subsequently centrifuged at 23.300 rpm for 15 min (25 °C). Part of the supernatant was taken off for quantification by UV absorbance at 312 nm with external calibration. The external calibration samples contained 1% DMSO and the test samples were spiked with DMSO to 1% concentration right before the measurement. Absorbance was measured with a Tecan Spark luminometer (Tecan Deutschland GmbH, Crailsheim, Germany). The solubility test was repeated in three independent experiments, […]

Nurr1 [7] = biological target: T1, Nurr1; assay: Gal4-Nurr1 hybrid reporter gene assay in HEK293T cells; format: cell-based; parameters: expressed in transfected cells; host or cells: HEK293T
Experimental: Hybrid reporter gene assays. Nurr1 modulation was determined in a Gal4 hybrid reporter gene assay in HEK293T cells (German Collection of Microorganisms and Cell Culture GmbH, DSMZ) using pFR-Luc (Stratagene, La Jolla, CA, USA; reporter), pRL-SV40 (Promega, Madison, WI, USA; internal control) and pFA-CMV-hNurr1-LBD^14, coding for the hinge region and ligand binding domain of the canonical isoform of human Nurr1. […] After 24 h, medium was changed to Opti-MEM without supplements and cells were transiently transfected using Lipofectamine LTX reagent (Invitrogen, Carlsbad, CA, USA) according to the manufacturer's protocol. Five hours after transfection, cells were incubated with the test compounds in Opti-MEM supplemented with penicillin (100 U/mL), streptomycin (100 µg/mL) and 0.1% DMSO for 16 h before luciferase activity was measured using the Dual-Glo Luciferase Assay System (Promega) according to the manufacturer's protocol on a Tecan Spark luminometer (Tecan Deutschland GmbH, Crailsheim, Germany). Firefly luminescence was divided by Renilla luminescence and multiplied by 1000 resulting in relative light units (RLU) to normalize for transfection efficiency and cell growth. Fold activation was obtained by dividing the mean RLU of test compound by the mean RLU of the untreated control. All samples were tested in at least three biologically independent experiments in duplicates. For dose-response curve fitting and calculation of EC50 values, the equation "[Agonist] vs. response -- Variable slope (four parameters)" was used in GraphPad Prism (version 7.00, GraphPad Software, La Jolla, CA, USA). Selectivity profiling was performed with identical procedures using pFA-CMV-Nur77-LBD^14, pFA-CMV-NOR-1-LBD^14, pFA-CMV-THRα-LBD^39, pFA-CMV-RARα-LBD^40, pFA-CMV-PPARα-LBD^41, pFA-CMV-PPARγ-LBD^41, pFA-CMV-PPARδ-LBD^41, pFA-CMV-LXRα-LBD^37, pFA-CMV-FXR-LBD^42 and pFA-CMV-hRXRα-LBD^43.
Target sequence in this assay (P43354 360-595 limits assumed): as above

ligand efficiency (LE) (Nurr1 [1]): 0.26 | size-independent ligand eff. (SILE) (Nurr1 [1]): 1.79
SMILES: CCN(CC)Cc1cc(Nc2ccnc3cc(Cl)ccc23)ccc1O [Compound 1, amodiaquine]
EC50 (Nurr1 [2]): ~20 µM

stability [3]: not stable; also recorded: unstable
SMILES: Cc1[nH]c2c(Cl)cccc2c1N [Compound 6, 7-chloro-2-methyl-1H-indol-3-amine]

EC50(NBRE) (Nurr1 monomer (NBRE)): no activation (10 µM) | EC50(NurRE) (Nurr1 homodimer (NurRE)): no activation (10 µM) | EC50(DR5) [+0.1 µM BEX] [4]: no activation (10 µM) | aq. solubility [6]: 4.1 µg/mL | less active than 36 as Nurr1 modulator (Nurr1 [7]): more than 100 fold
SMILES: Cc1nc2c(Cl)cccn2c1NC(=O)c1ccc(-c2ccccc2)[nH]1 [Compound 29]
EC50(Nur77) (Nur77): no effect; also recorded: no activation (10 µM) | EC50(NOR-1) (NOR-1): no effect; also recorded: no activation (10 µM) | Kd(Nurr1 LBD) (Nurr1 LBD): no detectable binding; also recorded: no binding ^b | induction of Nurr1-regulated gene expression [5]: no effect; also recorded: no induction | EC50(Nurr1) (max. activation) (Nurr1 [7]; result in words, at 10 µM): no Nurr1 agonism; also recorded: inactive (10 µM); also recorded: no activation (10 µM)

From patent publication EP4596548A1, “NURR1 MODULATORS” (Ludwig-Maximilians-Universität, priority 2024, dated 2025)
